The values below come from BindingDB's records for doi:10.3109/14756366.2010.521745 (Sun Yat-Sen University, 2011).

For this experiment, the target named is T1, Polyphenol oxidase 1 (White button mushroom, UniProt Q00024).
T1 sequence (Q00024 whole entry): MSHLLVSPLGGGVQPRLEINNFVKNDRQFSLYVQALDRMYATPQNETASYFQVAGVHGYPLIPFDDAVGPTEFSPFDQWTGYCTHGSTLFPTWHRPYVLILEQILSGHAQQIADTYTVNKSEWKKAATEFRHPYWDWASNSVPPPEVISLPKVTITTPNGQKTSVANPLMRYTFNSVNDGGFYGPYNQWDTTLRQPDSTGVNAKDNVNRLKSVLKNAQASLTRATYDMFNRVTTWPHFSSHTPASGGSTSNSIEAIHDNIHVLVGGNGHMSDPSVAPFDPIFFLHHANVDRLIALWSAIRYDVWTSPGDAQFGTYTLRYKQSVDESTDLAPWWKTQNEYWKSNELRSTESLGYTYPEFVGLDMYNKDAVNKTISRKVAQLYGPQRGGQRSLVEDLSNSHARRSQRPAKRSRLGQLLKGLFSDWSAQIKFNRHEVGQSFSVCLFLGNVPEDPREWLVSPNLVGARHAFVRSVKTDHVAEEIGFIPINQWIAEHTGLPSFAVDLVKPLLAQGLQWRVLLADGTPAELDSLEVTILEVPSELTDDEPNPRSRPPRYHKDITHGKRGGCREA
Put plainly: Tyrosinase Inhibition Assay. As to conditions: pH 6.8; 25 °C. The procedure: In brief, a 10 μL sample was added to an assay mixture containing with 10 μL tyrosinase solution (0.5 mg/mL) and 900 μL phosphate buffer (pH 6.8) to a total volume assay mixture of 920 μL, for 20 min at 25°C. Then 80 μL of L-dopa (1.50 mg/mL) was added to the reaction mixture and the enzyme reaction was monitoredby measuring the change in absorbance at 475 nm of the L-dopa for 1 min.
What is called IC50 is the point on the concentration scale where inhibition reaches its midpoint. A higher IC50 goes with weaker potency. Turning to `O=C(c1ccccc1O)c1ccc(O)c(O)c1O` [Polyhydroxy benzophenone, 15], the IC50 was 8.8 µM. In other words, the single-digit micromolar range.
Turning to `O=C(c1ccc(O)cc1)c1ccc(O)c(O)c1O` [hsp90_136], the concentration for half-maximal inhibition (IC50) was more than 100 µM.
As for `COc1cc(C(=O)c2ccc(O)cc2O)ccc1O` [Polyhydroxy benzophenone, 5], the IC50 is more than 200 µM.
To `O=C(c1ccc(O)cc1O)c1ccc(O)cc1O` [Polyhydroxy benzophenone, 4] belongs more than 200 µM; to `COc1cc(C(=O)c2ccc(O)c(O)c2O)ccc1O` [Polyhydroxy benzophenone, 9], 6.4 µM; to `O=C(c1ccccc1)c1ccc(O)c(O)c1O` [phenyl(2,3,4-trihydroxyphenyl)methanone], 10.5 µM.
To `O=C(c1cccc(O)c1)c1ccc(O)cc1O` [Polyhydroxy benzophenone, 12] belongs more than 200 µM; to `O=C(c1cc(O)c(O)c(O)c1)c1ccc(O)cc1O` [Polyhydroxy benzophenone, 6], 17.4 µM; to `O=C(c1ccc(O)cc1O)c1c(O)cc(O)cc1O` [Polyhydroxy benzophenone, 11], more than 200 µM.
To `O=C(c1ccc(O)cc1)c1cc(O)c(O)c(O)c1` [Polyhydroxy benzophenone, 14] belongs 98.3 µM; to `O=C(c1ccccc1)c1cccc(O)c1O` [Polyhydroxy benzophenone, 18], more than 200 µM.
As for `O=C(c1ccc(O)cc1O)c1ccc(O)c(O)c1O` [Polyhydroxy benzophenone, 8], the IC50 is 10.1 µM.
To `O=C(c1ccccc1)c1c(O)cc(O)cc1O` [Polyhydroxy benzophenone, 16] belongs more than 200 µM.
Then `O=C(c1cc(O)c(O)c(O)c1)c1ccc(O)c(O)c1O` [Polyhydroxy benzophenone, 10], with 1.4 µM.
